Common to all, as to assay: relative viability (nuclei count vs DMSO), 5 days (fraction); higher = more cells survive
Compound in assay [1]: C1=CC2=C(C=C(C(=C2N=C1)O)N=NC3=CC4=C(C=C3)C=C(C=C4)S(=O)(=O)O)S(=O)(=O)O + CCNC(=O)c1noc(-c2cc(C(C)C)c(O)cc2O)c1-c1ccc(CN2CCOCC2)cc1 [Luminespib] (partner 0.01 µM)
Put shortly:
(§1)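 One day after seeding in 1536-well plates, lung cancer cell lines were dosed by pin tool. Dosing was either single-drug or a fixed anchor-drug dose plus five library-drug doses (not always all listed) in √10 steps. After 5 days, nuclei were stained in one fix-and-stain step and counted on 4× images, and relative viability is the nuclei count of treated wells over that of vehicle wells, given as the median of duplicate plates.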

Compound in assay [2]: C1=CC2=C(C=C(C(=C2N=C1)O)N=NC3=CC4=C(C=C3)C=C(C=C4)S(=O)(=O)O)S(=O)(=O)O + C[C@@H](Oc1cc(-c2cnn(C3CCNCC3)c2)cnc1N)c1c(Cl)ccc(F)c1Cl [Crizotinib] (partner 1 µM)
The gist of the method: as §1

Compound in the assay “AT-7519 + OSI-027”: O=C(NC1CCNCC1)c1n[nH]cc1NC(=O)c1c(Cl)cccc1Cl [AT-7519] + COc1cccc2cc(-c3nc([C@H]4CC[C@H](C(=O)O)CC4)n4ncnc(N)c34)[nH]c12 [OSI-027] (partner 0.5 µM)
Put shortly: as §1

Compound in assay [3]: C1=CC2=C(C=C(C(=C2N=C1)O)N=NC3=CC4=C(C=C3)C=C(C=C4)S(=O)(=O)O)S(=O)(=O)O + Nc1nc2[nH]cc(CCc3ccc(C(=O)N[C@@H](CCC(=O)O)C(=O)O)cc3)c2c(=O)[nH]1 [Pemetrexed] (partner 0.2 µM)
Put shortly:
as §1

With NCI-H1734, the relative viability in assay [1] (first compound 0.08 µM) turned out to be 0.166; in assay [1] (first compound 0.253 µM), 0.182; in assay [1] (first compound 0.8 µM), 0.236; in assay [1] (first compound 2.53 µM), 0.182; in assay [1] (first compound 8 µM), 0.193; in assay [2] (first compound 0.08 µM) it was 0.733. Further, the relative viability in assay [2] (first compound 0.253 µM) was 0.66; in assay [2] (first compound 0.8 µM) it was 0.724; in assay [2] (first compound 2.53 µM), 0.64; in assay [2] (first compound 8 µM), 0.662; in the assay with AT-7519 + OSI-027 (first compound 0.01 µM), 0.521; with AT-7519 + OSI-027 (first compound 0.03162 µM) it was 0.543. The relative viability with AT-7519 + OSI-027 (first compound 0.3162 µM) is 0.445; with AT-7519 + OSI-027 (first compound 1 µM), 0.397; in assay [3] (first compound 0.08 µM), 0.387; in assay [3] (first compound 0.253 µM) it was 0.43; in assay [3] (first compound 0.8 µM) it was 0.417; in assay [3] (first compound 2.53 µM), 0.421. In addition, in assay [3] (first compound 8 µM), the relative viability came to 0.443.

With NCI-H1755, the relative viability in assay [1] (first compound 0.08 µM) is 0.431; in assay [1] (first compound 0.253 µM), 0.378; in assay [1] (first compound 0.8 µM) it was 0.395; in assay [1] (first compound 2.53 µM) it was 0.41; in assay [1] (first compound 8 µM), 0.472; in assay [2] (first compound 0.08 µM), 0.977. Besides, the relative viability worked out at 0.819 in assay [2] (first compound 0.253 µM); 0.858 in assay [2] (first compound 0.8 µM); 0.938 in assay [2] (first compound 2.53 µM); 0.849 in assay [2] (first compound 8 µM); 0.66 with AT-7519 + OSI-027 (first compound 0.01 µM); 0.655 in the assay with AT-7519 + OSI-027 (first compound 0.03162 µM). Besides, the relative viability with AT-7519 + OSI-027 (first compound 0.3162 µM) was determined as 0.705; in the assay with AT-7519 + OSI-027 (first compound 1 µM), 0.699; in assay [3] (first compound 0.08 µM), 0.526; in assay [3] (first compound 0.253 µM), 0.418; in assay [3] (first compound 0.8 µM), 0.459; in assay [3] (first compound 2.53 µM), 0.489. Moreover, in assay [3] (first compound 8 µM), the relative viability stood at 0.425.

As to NCI-H1792, the relative viability in assay [1] (first compound 0.08 µM) came to 0.481; in assay [1] (first compound 0.253 µM), 0.418; in assay [1] (first compound 0.8 µM), 0.58; in assay [1] (first compound 2.53 µM), 0.423; in assay [1] (first compound 8 µM), 0.331; in assay [2] (first compound 0.08 µM), 1.15. Further, the relative viability in assay [2] (first compound 0.253 µM) worked out at 0.947; in assay [2] (first compound 0.8 µM), 0.933; in assay [2] (first compound 2.53 µM), 1.02; in assay [2] (first compound 8 µM) it was 0.961; in the assay with AT-7519 + OSI-027 (first compound 0.3162 µM), 0.869; in the assay with AT-7519 + OSI-027 (first compound 1 µM), 0.791. The relative viability came to 1.02 in assay [3] (first compound 0.08 µM); 0.764 in assay [3] (first compound 0.253 µM); 0.821 in assay [3] (first compound 0.8 µM); 0.821 in assay [3] (first compound 2.53 µM); 0.897 in assay [3] (first compound 8 µM).

Regarding NCI-H1915, the relative viability in assay [1] (first compound 0.08 µM) was determined as 0.842; in assay [1] (first compound 0.253 µM) it was 0.773; in assay [1] (first compound 0.8 µM), 0.877; in assay [1] (first compound 2.53 µM), 0.78; in assay [1] (first compound 8 µM) it was 0.82; in assay [2] (first compound 0.08 µM), 0.973. Moreover, the relative viability in assay [2] (first compound 0.253 µM) is 0.864; in assay [2] (first compound 0.8 µM), 0.893; in assay [2] (first compound 2.53 µM), 0.912; in assay [2] (first compound 8 µM), 0.925; in the assay with AT-7519 + OSI-027 (first compound 0.01 µM), 0.406; with AT-7519 + OSI-027 (first compound 0.03162 µM) it was 0.598. Besides, the relative viability turned out to be 0.521 in the assay with AT-7519 + OSI-027 (first compound 0.3162 µM); 0.394 with AT-7519 + OSI-027 (first compound 1 µM); 0.523 in assay [3] (first compound 0.08 µM); 0.464 in assay [3] (first compound 0.253 µM); 0.473 in assay [3] (first compound 0.8 µM); 0.461 in assay [3] (first compound 2.53 µM). The relative viability in assay [3] (first compound 8 µM) was 0.446.

With NCI-H1944, the relative viability in assay [1] (first compound 0.08 µM) is 0.826; in assay [1] (first compound 0.253 µM) it was 0.696; in assay [1] (first compound 0.8 µM) it was 0.802; in assay [1] (first compound 2.53 µM) it was 0.741; in assay [1] (first compound 8 µM) it was 0.721; in assay [2] (first compound 0.08 µM), 1.24. The relative viability in assay [2] (first compound 0.253 µM) was determined as 1.1; in assay [2] (first compound 0.8 µM), 1.09; in assay [2] (first compound 2.53 µM), 1.12; in assay [2] (first compound 8 µM), 0.846; in the assay with AT-7519 + OSI-027 (first compound 0.01 µM), 0.436; with AT-7519 + OSI-027 (first compound 0.03162 µM), 0.402. The relative viability with AT-7519 + OSI-027 (first compound 0.3162 µM) worked out at 0.367; with AT-7519 + OSI-027 (first compound 1 µM) it was 0.328; in assay [3] (first compound 0.08 µM), 0.61; in assay [3] (first compound 0.253 µM), 0.559; in assay [3] (first compound 0.8 µM), 0.57; in assay [3] (first compound 2.53 µM), 0.634. Also, in assay [3] (first compound 8 µM), the relative viability was 0.395.

For the cell line NCI-H1975, the relative viability turned out to be 0.194 in assay [1] (first compound 0.08 µM); 0.2 in assay [1] (first compound 0.253 µM); 0.206 in assay [1] (first compound 0.8 µM); 0.264 in assay [1] (first compound 2.53 µM); 0.252 in assay [1] (first compound 8 µM); 1.1 in assay [2] (first compound 0.08 µM). Further, the relative viability in assay [2] (first compound 0.253 µM) is 0.961; in assay [2] (first compound 0.8 µM) it was 1.01; in assay [2] (first compound 2.53 µM) it was 0.994; in assay [2] (first compound 8 µM) it was 0.929; in the assay with AT-7519 + OSI-027 (first compound 0.01 µM), 0.827; with AT-7519 + OSI-027 (first compound 0.03162 µM) it was 0.778. The relative viability was 0.503 with AT-7519 + OSI-027 (first compound 0.3162 µM); 0.191 with AT-7519 + OSI-027 (first compound 1 µM); 0.315 in assay [3] (first compound 0.08 µM); 0.297 in assay [3] (first compound 0.253 µM); 0.302 in assay [3] (first compound 0.8 µM); 0.29 in assay [3] (first compound 2.53 µM). Further, the relative viability in assay [3] (first compound 8 µM) turned out to be 0.303.

The values above are taken from the supplement of paper PMC10307832.
